Legend:
Experiment in all cases: Kinase panel profiling at 1 µmol/L (mobility shift assay, Carna)
Type in all cases: biochemical
Details in all cases: 1 µmol/L of BTK inhibitor
HIPK3 = molecular target: T1, HIPK3 (Homo sapiens, UniProt Q9H422)
T1 construct: purchased Carna Biosciences

HIPK2 = molecular target: T2, HIPK2 (Homo sapiens, UniProt Q9H2X6)
T2 construct: purchased Carna Biosciences

TIE2 = molecular target: T3, TIE2 (Homo sapiens, UniProt Q02763)
T3 construct: purchased Carna Biosciences

CDK2/CycE1 = molecular target: T4, CDK2/CycE1 (Homo sapiens, UniProt P24941)
T4 construct: purchased Carna Biosciences

SPHK2 = molecular target: T5, SPHK2 (Homo sapiens, UniProt Q9NRA0)
T5 construct: purchased Carna Biosciences
T5 sequence (Q9NRA0 1-654): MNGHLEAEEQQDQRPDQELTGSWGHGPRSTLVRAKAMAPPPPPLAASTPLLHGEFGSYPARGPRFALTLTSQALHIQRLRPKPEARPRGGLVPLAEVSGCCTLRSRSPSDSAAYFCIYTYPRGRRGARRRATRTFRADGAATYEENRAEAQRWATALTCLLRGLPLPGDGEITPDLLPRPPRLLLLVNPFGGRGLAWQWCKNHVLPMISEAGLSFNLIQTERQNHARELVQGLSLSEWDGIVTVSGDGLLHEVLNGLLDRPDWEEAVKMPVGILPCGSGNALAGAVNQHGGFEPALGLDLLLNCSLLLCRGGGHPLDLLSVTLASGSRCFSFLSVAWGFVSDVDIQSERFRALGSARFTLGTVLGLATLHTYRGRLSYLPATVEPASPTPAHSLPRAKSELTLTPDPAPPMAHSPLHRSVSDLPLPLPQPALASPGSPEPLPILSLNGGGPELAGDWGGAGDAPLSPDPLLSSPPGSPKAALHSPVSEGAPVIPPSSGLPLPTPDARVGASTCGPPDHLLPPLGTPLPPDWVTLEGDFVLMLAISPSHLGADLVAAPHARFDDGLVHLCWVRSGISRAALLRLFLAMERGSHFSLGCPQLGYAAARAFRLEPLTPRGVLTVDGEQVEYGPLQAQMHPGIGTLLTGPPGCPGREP

ROCK1 = molecular target: T6, ROCK1 (Homo sapiens, UniProt Q13464)
T6 construct: purchased Carna Biosciences
T6 sequence (Q13464 whole entry): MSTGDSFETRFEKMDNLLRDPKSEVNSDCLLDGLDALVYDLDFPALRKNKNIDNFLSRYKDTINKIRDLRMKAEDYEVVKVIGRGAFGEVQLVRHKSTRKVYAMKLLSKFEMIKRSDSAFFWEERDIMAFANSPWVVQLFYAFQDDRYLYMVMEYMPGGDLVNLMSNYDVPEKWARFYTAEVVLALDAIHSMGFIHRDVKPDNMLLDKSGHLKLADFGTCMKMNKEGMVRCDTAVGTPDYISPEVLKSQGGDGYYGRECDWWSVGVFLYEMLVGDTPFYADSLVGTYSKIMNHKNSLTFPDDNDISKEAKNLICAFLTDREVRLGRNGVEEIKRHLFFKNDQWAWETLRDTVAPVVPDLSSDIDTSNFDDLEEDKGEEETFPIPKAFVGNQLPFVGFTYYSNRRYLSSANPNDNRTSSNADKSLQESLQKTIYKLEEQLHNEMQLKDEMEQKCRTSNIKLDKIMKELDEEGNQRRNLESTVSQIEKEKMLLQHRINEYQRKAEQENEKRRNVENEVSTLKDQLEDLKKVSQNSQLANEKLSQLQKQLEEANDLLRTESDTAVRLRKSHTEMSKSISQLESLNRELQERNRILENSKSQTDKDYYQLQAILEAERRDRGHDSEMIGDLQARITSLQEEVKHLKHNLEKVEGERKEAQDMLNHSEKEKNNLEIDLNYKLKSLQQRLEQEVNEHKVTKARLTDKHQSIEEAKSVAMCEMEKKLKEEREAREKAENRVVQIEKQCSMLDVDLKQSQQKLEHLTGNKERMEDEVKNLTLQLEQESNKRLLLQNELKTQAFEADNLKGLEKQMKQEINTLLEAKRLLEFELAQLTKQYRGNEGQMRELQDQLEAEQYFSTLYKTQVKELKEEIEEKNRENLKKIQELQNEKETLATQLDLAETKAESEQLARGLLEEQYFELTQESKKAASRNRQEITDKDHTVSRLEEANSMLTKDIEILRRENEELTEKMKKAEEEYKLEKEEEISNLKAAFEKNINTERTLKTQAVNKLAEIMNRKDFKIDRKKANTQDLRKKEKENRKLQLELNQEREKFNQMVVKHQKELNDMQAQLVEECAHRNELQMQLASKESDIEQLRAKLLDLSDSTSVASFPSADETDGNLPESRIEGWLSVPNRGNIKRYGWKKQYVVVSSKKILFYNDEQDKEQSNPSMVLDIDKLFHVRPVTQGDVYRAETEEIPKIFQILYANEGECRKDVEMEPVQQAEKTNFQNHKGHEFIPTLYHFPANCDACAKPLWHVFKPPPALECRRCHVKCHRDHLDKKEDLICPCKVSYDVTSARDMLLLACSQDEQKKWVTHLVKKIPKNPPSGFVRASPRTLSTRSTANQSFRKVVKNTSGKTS

MNK2 = molecular target: T7, MNK2 (Homo sapiens, UniProt Q9HBH9)
T7 construct: purchased Carna Biosciences
T7 sequence (Q9HBH9 whole entry): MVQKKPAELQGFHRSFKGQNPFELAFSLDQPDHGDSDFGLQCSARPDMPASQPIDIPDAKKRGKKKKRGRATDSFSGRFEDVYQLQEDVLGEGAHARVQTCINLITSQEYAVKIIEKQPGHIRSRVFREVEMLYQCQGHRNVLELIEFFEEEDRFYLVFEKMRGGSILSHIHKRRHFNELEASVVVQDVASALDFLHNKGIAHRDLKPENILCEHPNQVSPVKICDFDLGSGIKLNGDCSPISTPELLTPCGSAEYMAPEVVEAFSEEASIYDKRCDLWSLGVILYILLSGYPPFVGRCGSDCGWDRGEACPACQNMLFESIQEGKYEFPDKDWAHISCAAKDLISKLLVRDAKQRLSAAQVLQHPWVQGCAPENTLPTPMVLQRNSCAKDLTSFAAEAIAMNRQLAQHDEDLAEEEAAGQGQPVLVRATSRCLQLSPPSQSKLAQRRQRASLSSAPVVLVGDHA

PIM3 = molecular target: T8, PIM3 (Homo sapiens, UniProt Q86V86)
T8 construct: purchased Carna Biosciences

MARK4 = molecular target: T9, MARK4 (Homo sapiens, UniProt Q96L34)
T9 construct: purchased Carna Biosciences
T9 sequence (Q96L34 1-752): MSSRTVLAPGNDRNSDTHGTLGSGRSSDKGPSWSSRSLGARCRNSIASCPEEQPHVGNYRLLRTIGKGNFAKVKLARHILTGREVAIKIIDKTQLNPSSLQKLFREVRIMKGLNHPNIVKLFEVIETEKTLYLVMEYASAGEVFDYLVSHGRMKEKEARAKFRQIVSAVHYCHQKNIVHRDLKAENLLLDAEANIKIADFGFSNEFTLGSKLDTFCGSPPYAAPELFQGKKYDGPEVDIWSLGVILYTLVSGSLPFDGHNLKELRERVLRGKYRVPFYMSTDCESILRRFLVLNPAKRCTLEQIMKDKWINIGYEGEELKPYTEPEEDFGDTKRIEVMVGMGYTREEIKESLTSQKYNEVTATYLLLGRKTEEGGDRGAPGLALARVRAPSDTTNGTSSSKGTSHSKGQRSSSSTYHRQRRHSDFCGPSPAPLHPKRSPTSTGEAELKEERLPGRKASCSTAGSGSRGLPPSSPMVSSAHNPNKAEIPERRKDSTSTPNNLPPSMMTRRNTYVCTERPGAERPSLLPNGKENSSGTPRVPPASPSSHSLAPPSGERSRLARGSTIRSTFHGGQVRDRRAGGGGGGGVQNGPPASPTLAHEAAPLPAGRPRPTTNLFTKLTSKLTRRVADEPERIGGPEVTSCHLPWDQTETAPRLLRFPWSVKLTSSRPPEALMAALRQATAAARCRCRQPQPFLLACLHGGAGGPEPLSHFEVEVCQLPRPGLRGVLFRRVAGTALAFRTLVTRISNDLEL

MAP4K2 = molecular target: T10, MAP4K2 (Homo sapiens, UniProt Q12851)
T10 construct: purchased Carna Biosciences
T10 sequence (Q12851 1-820): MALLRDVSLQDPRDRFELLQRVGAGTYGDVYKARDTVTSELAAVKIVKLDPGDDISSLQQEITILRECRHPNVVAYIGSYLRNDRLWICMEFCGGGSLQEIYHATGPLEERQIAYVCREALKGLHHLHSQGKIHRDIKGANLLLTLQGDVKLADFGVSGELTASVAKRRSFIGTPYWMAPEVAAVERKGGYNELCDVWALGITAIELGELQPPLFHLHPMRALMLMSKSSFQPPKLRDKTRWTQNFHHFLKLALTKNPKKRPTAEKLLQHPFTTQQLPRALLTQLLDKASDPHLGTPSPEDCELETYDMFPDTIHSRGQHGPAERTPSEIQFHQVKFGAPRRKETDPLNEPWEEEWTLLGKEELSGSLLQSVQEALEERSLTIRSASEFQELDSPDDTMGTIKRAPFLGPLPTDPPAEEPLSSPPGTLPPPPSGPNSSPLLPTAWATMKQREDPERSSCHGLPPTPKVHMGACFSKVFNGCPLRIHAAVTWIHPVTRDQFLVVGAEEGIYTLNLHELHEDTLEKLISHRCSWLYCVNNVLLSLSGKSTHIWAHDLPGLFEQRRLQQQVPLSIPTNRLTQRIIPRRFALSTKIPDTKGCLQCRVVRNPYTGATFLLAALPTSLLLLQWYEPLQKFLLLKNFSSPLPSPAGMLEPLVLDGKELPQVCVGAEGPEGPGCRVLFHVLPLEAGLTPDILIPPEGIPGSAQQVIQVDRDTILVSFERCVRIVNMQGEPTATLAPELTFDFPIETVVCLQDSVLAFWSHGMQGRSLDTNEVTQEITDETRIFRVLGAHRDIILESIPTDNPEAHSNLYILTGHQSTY

FLT4 = molecular target: T11, FLT4 (Homo sapiens, UniProt P35916)
T11 construct: purchased Carna Biosciences

FRK = molecular target: T12, FRK (Homo sapiens, UniProt P42685)
T12 construct: purchased Carna Biosciences
T12 sequence (P42685 whole entry): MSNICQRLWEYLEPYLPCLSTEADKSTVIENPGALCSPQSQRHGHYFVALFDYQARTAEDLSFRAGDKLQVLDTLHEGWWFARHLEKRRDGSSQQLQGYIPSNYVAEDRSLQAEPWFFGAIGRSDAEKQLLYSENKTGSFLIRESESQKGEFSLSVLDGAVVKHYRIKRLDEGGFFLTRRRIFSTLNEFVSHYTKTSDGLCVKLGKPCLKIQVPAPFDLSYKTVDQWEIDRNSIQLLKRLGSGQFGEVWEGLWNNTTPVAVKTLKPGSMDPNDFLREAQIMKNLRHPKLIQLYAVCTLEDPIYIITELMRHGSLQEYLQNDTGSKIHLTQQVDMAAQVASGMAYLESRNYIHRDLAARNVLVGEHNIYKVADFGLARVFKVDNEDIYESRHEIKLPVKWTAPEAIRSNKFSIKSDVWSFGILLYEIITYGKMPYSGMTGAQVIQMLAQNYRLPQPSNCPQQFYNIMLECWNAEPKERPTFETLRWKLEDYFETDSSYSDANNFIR

CaMK2γ = molecular target: T13, CaMK2γ (Homo sapiens, UniProt Q13555)
T13 construct: purchased Carna Biosciences
T13 sequence (Q13555 whole entry): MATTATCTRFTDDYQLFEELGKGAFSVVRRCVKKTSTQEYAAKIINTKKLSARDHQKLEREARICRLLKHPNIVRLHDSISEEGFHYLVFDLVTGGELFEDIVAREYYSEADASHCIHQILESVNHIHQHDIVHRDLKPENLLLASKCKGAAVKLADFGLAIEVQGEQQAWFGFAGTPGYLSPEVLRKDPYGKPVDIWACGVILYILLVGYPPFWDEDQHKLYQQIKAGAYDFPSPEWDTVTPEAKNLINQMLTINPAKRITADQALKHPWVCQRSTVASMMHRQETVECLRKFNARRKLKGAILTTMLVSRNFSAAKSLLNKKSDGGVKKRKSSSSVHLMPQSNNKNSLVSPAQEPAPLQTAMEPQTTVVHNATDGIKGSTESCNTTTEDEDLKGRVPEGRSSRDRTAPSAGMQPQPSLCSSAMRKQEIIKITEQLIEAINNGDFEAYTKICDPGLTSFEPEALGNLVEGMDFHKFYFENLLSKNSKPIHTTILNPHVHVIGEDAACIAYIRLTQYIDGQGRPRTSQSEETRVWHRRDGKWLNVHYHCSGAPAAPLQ

T2 sequence (Q9H2X6 whole entry): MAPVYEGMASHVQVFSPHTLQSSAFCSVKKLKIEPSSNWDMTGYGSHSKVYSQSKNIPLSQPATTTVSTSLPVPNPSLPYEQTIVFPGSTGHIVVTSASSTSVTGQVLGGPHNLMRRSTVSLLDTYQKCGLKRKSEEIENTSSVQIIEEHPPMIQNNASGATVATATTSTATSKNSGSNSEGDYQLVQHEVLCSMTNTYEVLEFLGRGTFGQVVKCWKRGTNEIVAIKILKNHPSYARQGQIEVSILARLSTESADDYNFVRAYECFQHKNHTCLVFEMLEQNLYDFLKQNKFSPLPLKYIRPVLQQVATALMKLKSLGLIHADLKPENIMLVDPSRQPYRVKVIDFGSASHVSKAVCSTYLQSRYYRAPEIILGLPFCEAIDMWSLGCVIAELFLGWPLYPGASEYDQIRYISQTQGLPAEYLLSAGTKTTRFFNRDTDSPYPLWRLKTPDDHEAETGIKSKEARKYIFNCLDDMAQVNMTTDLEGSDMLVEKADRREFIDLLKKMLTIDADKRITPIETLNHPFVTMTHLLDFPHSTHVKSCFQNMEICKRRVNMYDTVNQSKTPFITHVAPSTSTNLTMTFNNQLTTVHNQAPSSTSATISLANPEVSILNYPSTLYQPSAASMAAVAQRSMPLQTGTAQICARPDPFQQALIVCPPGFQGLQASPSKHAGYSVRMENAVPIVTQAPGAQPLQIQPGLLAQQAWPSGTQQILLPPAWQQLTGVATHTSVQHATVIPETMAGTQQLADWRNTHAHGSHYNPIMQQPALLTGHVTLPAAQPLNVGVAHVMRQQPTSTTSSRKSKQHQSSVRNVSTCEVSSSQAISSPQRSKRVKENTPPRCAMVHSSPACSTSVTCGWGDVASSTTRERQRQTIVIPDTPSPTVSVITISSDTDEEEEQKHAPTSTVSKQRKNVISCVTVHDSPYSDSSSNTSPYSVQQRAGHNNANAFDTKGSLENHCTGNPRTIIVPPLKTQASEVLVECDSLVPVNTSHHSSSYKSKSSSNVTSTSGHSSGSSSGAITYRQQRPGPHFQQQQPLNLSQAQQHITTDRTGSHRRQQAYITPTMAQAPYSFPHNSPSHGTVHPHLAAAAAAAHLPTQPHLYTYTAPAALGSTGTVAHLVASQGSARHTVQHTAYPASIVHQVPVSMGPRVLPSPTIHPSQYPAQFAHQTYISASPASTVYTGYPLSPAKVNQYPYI

Row | Compound | Percentage inhibition of kinase enzyme activity (HIPK3) | Percentage inhibition of kinase enzyme activity (HIPK2) | Percentage inhibition of kinase enzyme activity (TIE2) | Percentage inhibition of kinase enzyme activity (CDK2/CycE1) | Percentage inhibition of kinase enzyme activity (SPHK2) | Percentage inhibition of kinase enzyme activity (ROCK1) | Percentage inhibition of kinase enzyme activity (MNK2) | Percentage inhibition of kinase enzyme activity (PIM3) | Percentage inhibition of kinase enzyme activity (MARK4) | Percentage inhibition of kinase enzyme activity (MAP4K2) | Percentage inhibition of kinase enzyme activity (FLT4) | Percentage inhibition of kinase enzyme activity (FRK) | Percentage inhibition of kinase enzyme activity (CaMK2γ)
1 | CC#CC(=O)N1CCC[C@H]1c1nc(-c2ccc(C(=O)Nc3ccccn3)cc2)c2c(N)nccn12 [acalabrutinib] | -12.04% | -11.44% | -5.36% | -4.82% | 6.90% | -7.78% | 12.37% | -0.0376% | -15.24% | -11.21% | 1.41% | 47.48% | -1.85%
2 | C=CC(=O)N1CCC[C@@H](n2nc(-c3ccc(Oc4ccccc4)cc3)c3c(N)ncnc32)C1 [ibrutinib] | 1.67% | 2.01% | 29.04% | -8.27% | 9.66% | -5.42% | 19.75% | -0.24% | -14.26% | -4.43% | 90.82% | 99.53% | -1.83%
3 | O=C(c1ccc(Oc2ccccc2)cc1Cl)c1c[nH]c2ncnc(N[C@@H]3CC[C@@H](CO)OC3)c12 [nemtabrutinib] | 5.34% | 3.26% | 99.74% | -17.66% | 1.97% | 16.05% | 56.12% | -5.55% | 20.90% | 78.03% | 90.70% | 98.79% | 1.06%
4 | COc1ccc(F)cc1C(=O)NCc1ccc(-c2nn([C@@H](C)C(F)(F)F)c(N)c2C(N)=O)cc1 [pirtobrutinib] | 3.06% | 0.19% | -3.49% | -41.48% | -12.42% | -4.30% | 7.34% | 1.44% | -2.93% | 3.56% | 4.92% | 13.63% | -1.71%
5 | C=CC(=O)N1CCC([C@@H]2CCNc3c(C(N)=O)c(-c4ccc(Oc5ccccc5)cc4)nn32)CC1 [zanubrutinib] |  |  |  |  |  |  |  |  |  |  | -6.85% | 31.32% | 
